Data: patent US20240299328A1, “COMPOSITIONS COMPRISING 15-HEPE AND METHODS OF TREATING AND/OR PREVENTING HEMATOLOGIC DISORDERS AND RELATED DISEASES” (Afimmune Limited, priority 2023, published 2024)

Tests used:
NAFLD patients = test: Phase IIa NAFLD study: OWL liver care diagnostic test; assay type: in vivo, human; conditions: for Change in Diagnosis (Week 16 vs. baseline): Improvement / Change in Diagnosis (Week 16 vs. baseline): Stable / Change in Diagnosis (Week 16 vs. baseline): Worsening: number of patients
From the text: OWL Liver Care is a test that was developed based on the plasma lipidomics in biopsy-confirmed NASH patients and provides high predictive values. OWL Liver Care has an area under the curve (AUC) of 0.88 for distinguishing NAFLD and normal liver patients and an AUC of 0.79 for distinguishing NAFLD without steatohepatitis and NASH patients.

Sprague Dawley rats = test: 26 week rat toxicity study: tolerability, clinical signs; assay type: in vivo; conditions: 6 g/kg/day oral gavage, replaced with 3 g/kg/day
Method: The test and control items were administered to the appropriate animals by once daily oral gavage 7 days a week for a minimum of 26 weeks. The volume for each animal was based on the most recent body weight measurements. The doses were given using a syringe with attached gavage cannula. The first day of dosing was designated as Day 1. The dosing formulations were removed from the refrigerator and stirred for at least 30 minutes before dosing. The dosing formulations were also stirred continuously during dosing.
Due to the onset of clinical signs, including hunched posture, erect fur and abnormal gait and body weight loss, animals 3206M, 3515F and 3703F were given a dosing holiday from Day 45 and remaining Group 3 animals were given a dosing holiday from Day 48. Animals will start dosing at the lower dose level (3000 mg/kg/day) from Day 64. The following tables illustrate the treatments (Table 22) and animal groupings (Table 23) that were used in the study.
Mortality/moribundity checks were made daily. […] Animals were not removed from the cage during observation, unless necessary for identification or confirmation of possible findings.
Post-dose observations were made regularly throughout the day. […] The onset, intensity, and duration of these signs were recorded; particular attention was paid to the animals during and for the first hour after dosing.

[1] = test system: humanized sickle cell (SS) mice; test: Humanized SCD (SS) mice under normoxia, 6 weeks treatment; assay type: in vivo; conditions: 1000 mg/Kg/d for 6 weeks
Method: Animals and design of the study: Experiments were performed on 4-5 months-old sex matched healthy control (Hba^tm1(HBA) Tow Hbb^tm3(HBG1, HBB) Tow) and SCD (Hba^tm1(HBA)Tow Hbb^tm2(HBG1.HBB*)Tow) mice. The study used 4-5 months-old mice. The sickle cell related organ damage is not so severe to generate confounding factors when the impact of H/R induced stress is evaluated. This is also corroborated by the observation of Kasztan M et al who show gender-related differences in kidney function of humanized SCD mice becoming significant after 24 weeks (6 months) of age. The size of the mouse groups was established based on studies with the same mouse model for SCD generated by us and other labs. Mice were randomly assigned to the different treatment groups and analysis. Healthy and SS mice were treated with ether vehicle (hydroxypropyl methyl cellulose, HPMC, 0.5%) or Epeleuton in HPMC 0.5% (1000 mg/kg/day) administrated by gavage for 6 weeks. […] When indicated, mice underwent a hypoxia/reoxygenation stress (H/R): 10 hours hypoxia (8% oxygen) followed by 3 hours reoxygenation (21% oxygen) to mimic acute vaso-occlusive crisis as previously described. Whole blood and organs were collected from each mouse under isoflurane anesthesia. Organs were immediately removed and divided into two portions which were either immediately frozen in liquid nitrogen or fixed in 10% formalin and embedded in paraffin for histology. Hematological parameters were evaluated with a Sysmex XN-1000 Hematology Analyzer and red cell morphology was evaluated as previously reported. Biochemical assays were performed using standard biochemical assays, as previously reported. Plasmatic Pentraxin 2 and CCL-2 and CXCL-2 were measured respectively using the Mouse Pentraxin 2/SAP Quantikine ELISA Kit and the next generation ELISA kit according to the manufacturer's instruction.
Immunoblot analysis: Packed red cells were lysed in ice-cold phosphate lysis buffer (5 mM Na2HPO4, pH 8.0, containing protease inhibitor cocktail tablets, 3 mM benzamidine final concentration, 1 mM Na3VO4 final concentration) and centrifuged 10 min at 4° C. at 12,000 g. Red cell membrane (ghost) and cytosol fractions were obtained as previously reported. Frozen lung, kidney and aorta from each studied group were homogenized and lysed with iced lyses buffer (150 mM NaCl, 25 mM bicine, 0.1% SDS, 2% Triton X-100, 1 mM EDTA, protease inhibitor cocktail tablets, 1 mM Na3VO4 final concentration) then centrifuged 30 min at 4° C. at 12,000 g. Specific antibodies used are: anti Phospho-Tyrosine (clone PY99 from SCBT, Santa Cruz, CA (dilution 1:3000, 75 μg loaded) and clone 4G10 from Merck KGaA, Darmstadt, Germany (dilution 1:1600, 75 μgr loaded)); anti Phospho (Ser536) NF-kB p65 (dilution 1:1000, 75 μg loaded) and anti NF-kB p65 (clone C22B4) (dilution 1:1000, 75 μgr loaded) from Cell Signaling Technology (Danvers, MA, USA); anti-NLRP3/NALP3 from Vinci-Biochem Srl, Vinci, Italy (dilution 1:1000, 75 μgr loaded); anti Endothelin-1 (ET-1) form AbCam, Cambridge, UK (dilution 1:1000, 75 μgr loaded); anti VCAM-1 (R and D Systems, Minneapolis, MN, USA (dilution 1:1000, 40 μgr loaded)); anti ICAM-1 (clone EP1442Y, dilution 1:1000, 75 μgr loaded, AbCam, Cambridge, UK); anti TXAS-1 (Cayman, Ann Arbor, MI, USA); anti Nrf2-phospho-S40 (Clone EP1809Y, dilution 1:1000, 75 μgr loaded, AbCam, Cambridge, UK); anti-Nrf2 (dilution 1:1000, 75 μgr loaded, AbCam, Cambridge, UK); anti Nqo1 from Santa Cruz Biotechnology, Inc, CA, USA (clone C-19; dilution 1:1000, 75 μgr/μl loaded); anti-heme oxygenase 1(HO-1) form SCBT (Santa Cruz, CA, USA (dilution 1:1000, 50 μgr loaded); E-selectin (H-300) (dilution 1:1000, 75 μgr loaded); anti GAPDH from SCBT (Santa Cruz, CA, USA (dilution 1:5000, 50 μgr loaded)); anti Actin from SCBT (Santa Cruz, CA, USA (clone 2A3, dilution 1:1000, 50 μgr/loaded)). […]

rats = conditions: 26-week oral, once daily; cited from earlier work
[2] = 1 g DS102 arm, OWL baseline diagnosis NASH
[3] = 1 g DS102 arm, OWL baseline diagnosis No NAFLD
[4] = 1 g DS102 arm, OWL baseline diagnosis Steatosis
[5] = 2 g DS102 arm, OWL baseline diagnosis NASH
[6] = 2 g DS102 arm, OWL baseline diagnosis No NAFLD
[7] = 2 g DS102 arm, OWL baseline diagnosis Steatosis

With `CC/C=C\C[C@H](O)/C=C/C=C\C/C=C\C/C=C\CCCC(=O)OCC` [DS102, 15(S)-hydroxy-(5Z,8Z,11Z,13E,17Z)-eicosapentaenoic acid ethyl ester] the “Change in Diagnosis (Week 16 vs. baseline): Improvement” value (“Change in Diagnosis … Improvement” for short) (NAFLD patients; [2]) was 5, the “Change in Diagnosis (Week 16 vs. baseline): Stable” value (from here on “Change in Diagnosis … Stable”) (NAFLD patients; [2]) was 14 and the “Change in Diagnosis … Stable” value (NAFLD patients; [3]) was 3. For the same compound, the “Change in Diagnosis (Week 16 vs. baseline): Worsening” value (“Change in Diagnosis … Worsening” below) (NAFLD patients; [3]) was 1, the “Change in Diagnosis … Stable” value (NAFLD patients; [4]) was 2 and the “Change in Diagnosis … Worsening” value (NAFLD patients; [4]) was 3. For the same compound, the “Change in Diagnosis … Improvement” value (NAFLD patients; [5]) was 5, the “Change in Diagnosis … Stable” value (NAFLD patients; [5]) was 7 and the “Change in Diagnosis … Stable” value (NAFLD patients; [6]) was 2*, **. For the same compound, the “Change in Diagnosis … Worsening” value (NAFLD patients; [6]) was 1, the “Change in Diagnosis … Improvement” value (NAFLD patients; [7]) was 1 and the “Change in Diagnosis … Stable” value (NAFLD patients; [7]) was 9. For the same compound, the “Change in Diagnosis … Worsening” value (NAFLD patients; [7]) was 4, the “OWL liver care diagnosed NASH” value (NAFLD patients; NAFLD patients, dose dependent, vs placebo at Week 16) was “significantly improved and normalized” and the “tolerability of the highest dose” value (Sprague Dawley rats) was “not well tolerated”. For the same compound, the “tolerability and body weight” value [1] was “well tolerated without major changes in body weight”, the ALT ([1]; normoxia) was “significant reduction” and the AST ([1]; normoxia) was “no change”. The CRP ([1]; normoxia) was “significant reduction”, the circulating neutrophils ([1]; normoxia) was “significant reduction” and the “expression of VCAM-1, ICAM1 and endothelin-1 (ET-1) in lungs, kidneys, livers” value ([1]; normoxia) was “significantly reduction”. For the same compound, the liver protein oxidation ([1]; normoxia) was “marked reduction”, the pentraxin-2 ([1]; normoxia) was “trend toward a reduction” and the “plasma CCL2/MCP1” value ([1]; normoxia) was “lower”. For the same compound, the BUN ([1]; normoxia, vs vehicle) was “no change”, the “activation of NF-kB in lungs, kidneys, and livers” value ([1]; normoxia, vs vehicle) was “significantly reduced” and the “expression of ICAM-1 and ET-1 in isolated aortas” value ([1]; normoxia, vs vehicle) was “significantly down-regulated”. The serum creatinine ([1]; normoxia, vs vehicle) was “trend toward a reduction”, the “hematocrit or reticulocyte counts” value ([1]; normoxic conditions) was “no significant changes” and the “highest dose tested, showing no adverse effects” value (rats) was 1 mg/kg/day.
